Laboratory results as given in patent US11759462B2, “Spirocyclic compounds as tryptophan hydroxylase inhibitors” (priority 2013, dated 2023).

molecular target: T1, Recombinant human TPH1 (MBP tagged) (Homo sapiens, UniProt P17752); experiment: TPH1 in vitro inhibition assay (kinetic fluorescence); type: biochemical; settings: read-out: TPH1 Range (TPH1 inhibition IC50)
T1 construct: cloning full length human TPH1 cDNA in to a bacterial pMAL-c5E expression vector; made in house; host or cells: E. coli BL21 (DE3)
T1 sequence (P17752 1-444): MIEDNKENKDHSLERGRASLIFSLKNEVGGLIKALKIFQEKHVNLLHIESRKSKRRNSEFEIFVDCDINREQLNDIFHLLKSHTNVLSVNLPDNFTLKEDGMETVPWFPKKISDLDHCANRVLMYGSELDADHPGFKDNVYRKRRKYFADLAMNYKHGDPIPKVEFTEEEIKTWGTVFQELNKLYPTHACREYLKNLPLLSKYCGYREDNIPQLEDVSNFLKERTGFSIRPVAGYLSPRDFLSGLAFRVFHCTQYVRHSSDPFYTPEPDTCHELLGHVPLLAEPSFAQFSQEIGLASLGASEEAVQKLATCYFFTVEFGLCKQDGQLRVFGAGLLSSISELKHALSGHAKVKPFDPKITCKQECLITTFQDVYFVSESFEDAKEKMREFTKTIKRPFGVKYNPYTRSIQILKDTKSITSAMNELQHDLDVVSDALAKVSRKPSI
Method in brief: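 Final mix: 15 nM MBP-TPH1, 30 μM Trp, 36 μM 6-methyltetrahydropterin, 25 μM ferrous ammonium sulfate, 50 mM MES pH 7.1, 1% DMSO, room temperature.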

**Q.** For CS(=O)(=O)c1cccc(-c2cc(Cl)ccc2COc2cc(N3CCC4(CC3)CN[C@H](C(=O)O)C4)nc(N)n2)c1 [Example 62, (S)-8-(2-amino-6-((5-chloro-3′-(methylsulfonyl)-[1,1′-biphenyl]-2-yl)methoxy)pyrimidin-4-yl)-2,8-diazaspiro[4.5]decane-3-carboxylic acid], which IC50 is on record?
**A.** 50 to 300 nM

**Q.** How did the IC50 turn out when “(S)-8-(2-Amino-6-((4-(3-methyl-H-indazol-6-yl)phenoxy)methyl)pyrimidin-4-yl)-2,8-diazaspiro[4.5]decane-3-carboxylic acid [Example 61]” was run?
**A.** 50 to 300 nM

**Q.** Which IC50 does the source give for “(S)-8-(2-amino-6-((R)-1-(3,4-dihydroquinazolin-6-yl)-2,2,2-trifluoroethoxy)pyrimidin-4-yl)-2,8-diazaspiro[4.5]decane-3-carboxylic acid [Example 57]” here?
**A.** 50 to 300 nM

**Q.** “(S)-8-(2-amino-6-((R)-1-(4-bromo-2-(3-methyl-H-pyrazol-1-yl)phenyl)-2,2,2-trifluoroethoxy)pyrimidin-4-yl)-2,8-diazaspiro[4.5]decane-3-carboxylic acid [Example 10o]” was tested. Which IC50 did it give?
**A.** < 50 nM

**Q.** How did the IC50 turn out when “(S)-8-(2-amino-6-((R)-1-(5-chloro-3′-isopropyl-[1,1′- biphenyl]-2-yl)-2,2,2-trifluoroethoxy)pyrimidin-4- yl)-2,8-diazaspiro[4.5]decane-3-carboxylic acid [Example 34ce]” was run?
**A.** 50 to 300 nM

**Q.** Which IC50 does the source give for “(S)-8-(2-amino-6-((R)-2,2,2-trifluoro-1-(3-(3- methyl-1H-pyrazol-1-yl)-2′,3′,4′,5′-tetrahydro- [1,1′-biphenyl]-4-yl)ethoxy)pyrimidin-4-yl)- 2,8-diazaspiro[4.5]decane-3-carboxylic acid [Example 1v]” here?
**A.** < 50 nM

**Q.** With “(S)-8-(2-amino-6-((R)-2,2,2-trifluoro-1-(3′,4,5′- trifluoro-[1,1′-biphenyl]-4-yl)ethoxy)pyrimidin-4- yl)-2,8-diazaspiro[4.5]decane-3-carboxylic acid [Example 55co]” as the compound, how does the IC50 read?
**A.** 50 to 300 nM

**Q.** With “(S)-8-(6-((R)-1-(4-(1H-indol-6-yl)-2-(3-methyl- 1H-pyrazol-1-yl)phenyl)-2,2,2-trifluoroethoxy)- 2-aminopyrimidin-4-yl)-2,8- diazaspiro[4.5]decane-3-carboxylic acid [Example 1aa]” as the compound, how does the IC50 read?
**A.** < 50 nM

tested on: jejunal mucosal 5-HT in mice (C57 BL6); experiment: Intestinal 5-HT depletion assay (Example B, single 150 mg/kg oral dose); type: in vivo, mouse; settings: one day after oral administration of a single 150 mg/kg dose, P-value class (ANOVA)
Protocol: The efficacy of the TPH1 inhibitors of the invention was assessed for the ability to decrease intestinal serotonin concentration in mice. Mice (C57 BL6) were administered a single 150 mg/kg dose of test article by oral gavage. Each animal was euthanized by exsanguination under isoflurane anesthesia. Jejunal intestinal mucosa was isolated and homogenized in 300 μL of a buffer containing 0.3M trichloroacetic acid, 0.1M sodium acetate, 10 mM EDTA, 20 mM sodium bisulfate and 50 mM ascorbic acid. Following centrifugation the 5-HT levels in the supernatants were measured by HPLC. The remaining mucosal pellet was solubilized overnight at 37° C. in a 0.1% sodium dodecyl sulfate buffer in 0.1N NaOH followed by determination of protein concentrations using a BCA protein assay (Pierce, Rockford, Ill. 5-HT levels were normalized to protein and data were expressed as mean percent reduction of mucosal 5-HT levels relative to vehicle control SEM (percent 5-HT reduction). All animal studies were carried out with protocols approved by the Institutional Animal Care and Use Committee.
P-values, indicating statistical significance of the data (ANOVA) are provided in the table: * refers to P<0.05, ** refers to P<0.01, *** refers to P<0.005, and refers to P<0.0005.

**Q.** With CCOC(=O)c1cccc(-c2ccc([C@@H](Oc3cc(N4CCC5(CC4)CN[C@H](C(=O)O)C5)nc(N)n3)C(F)(F)F)c(-n3ccc(C)n3)c2)c1 [Example 5] as the compound, how does the “Efficacy (statistical significance of reduction of mucosal 5-HT concentrations relative to vehicle)” value read?
**A.** ** (** refers to P<0.01)

**Q.** Which “Efficacy (statistical significance of reduction of mucosal 5-HT concentrations relative to vehicle)” value does the source give for Cc1ccn(-c2cc(C(F)(F)F)ccc2[C@@H](Oc2cc(N3CCC4(CC3)CN[C@H](C(=O)O)C4)nc(N)n2)C(F)(F)F)n1 [Example 10g, (S)-8-(2-amino-6-((R)-2,2,2-trifluoro-1-(2-(3-methyl-1H-pyrazol-1-yl)-4-(trifluoromethyl)phenyl)ethoxy)pyrimidin-4-yl)-2,8-diazaspiro[4.5]decane-3-carboxylic acid] here?
**A.** ** (** refers to P<0.01)

**Q.** For Cc1ccc([C@@H](Oc2cc(N3CCC4(CC3)CN[C@H](C(=O)O)C4)nc(N)n2)C(F)(F)F)c(-n2ccc(C)n2)c1 [Example 10h, (S)-8-(2-amino-6-((R)-2,2,2-trifluoro-1-(4-methyl-2-(3-methyl-1H-pyrazol-1-yl)phenyl)ethoxy)pyrimidin-4-yl)-2,8-diazaspiro[4.5]decane-3-carboxylic acid], which “Efficacy (statistical significance of reduction of mucosal 5-HT concentrations relative to vehicle)” value is on record?
**A.** *** (*** refers to P<0.005)

**Q.** For Cc1ccn(-c2cc(Cl)ccc2[C@@H](Oc2cc(N3CCC4(CC3)CN[C@H](C(=O)O)C4)nc(C)n2)C(F)(F)F)n1 [Example 28, (S)-8-(6-((R)-1-(4-chloro-2-(3-methyl-H-pyrazol-1-yl)phenyl)-2,2,2-trifluoroethoxy)-2-methylpyrimidin-4-yl)-2,8-diazaspiro[4.5]decane-3-carboxylic acid], which “Efficacy (statistical significance of reduction of mucosal 5-HT concentrations relative to vehicle)” value is on record?
**A.** * (* refers to P<0.05)

**Q.** How did the “Efficacy (statistical significance of reduction of mucosal 5-HT concentrations relative to vehicle)” value turn out when Cc1ccn(-c2cc(-c3cccnc3)ccc2[C@@H](Oc2cc(N3CCC4(CC3)CN[C@H](C(=O)O)C4)nc(C)n2)C(F)(F)F)n1 [Example 29z, (S)-8-(2-methyl-6-((R)-2,2,2-trifluoro-1-(2-(3-methyl-1H-pyrazol-1-yl)-4-(pyridin-3-yl)phenyl)ethoxy)pyrimidin-4-yl)-2,8-diazaspiro[4.5]decane-3-carboxylic acid] was run?
**A.** ** (** refers to P<0.01)

**Q.** For Cc1ccn(-c2cc(Cl)ccc2[C@@H](Oc2cc(N3CCC4(CC3)CNC(C(=O)O)C4)nc(NC3CCCCC3)n2)C(F)(F)F)n1 (stereo partly drawn) [Example 31, 8-(6-((R)-1-(4-chloro-2-(3-methyl-H-pyrazol-1-yl)phenyl)-2,2,2-trifluoroethoxy)-2-(cyclohexylamino)pyrimidin-4-yl)-2,8-diazaspiro[4.5]decane-3-carboxylic acid], which “Efficacy (statistical significance of reduction of mucosal 5-HT concentrations relative to vehicle)” value is on record?
**A.** * (* refers to P<0.05)

**Q.** With Nc1nc(O[C@H](c2ccc(Cl)cc2-c2ccccc2)C(F)(F)F)cc(N2CCC3(CC2)CN[C@H](C(=O)O)C3)n1 [Example 34r, (S)-8-(2-amino-6-((R)-1-(5-chloro-[1,1′-biphenyl]-2-yl)-2,2,2-trifluoroethoxy)pyrimidin-4-yl)-2,8-diazaspiro[4.5]decane-3-carboxylic acid] as the compound, how does the “Efficacy (statistical significance of reduction of mucosal 5-HT concentrations relative to vehicle)” value read?
**A.** *** (*** refers to P<0.005)

**Q.** For CCOC(=O)C1CC2(CCN(c3cc(O[C@H](c4ccc(Cl)cc4-n4ccc(C)n4)C(F)(F)F)nc(N)n3)CC2)CN1 (stereo partly drawn) [Example 63ay, ethyl 8-(2-amino-6-((R)-1-(4-chloro-2-(3-methyl-1H-pyrazol-1-yl)phenyl)-2,2,2-trifluoroethoxy)pyrimidin-4-yl)-2,8-diazaspiro[4.5]decane-3-carboxylate], which “Efficacy (statistical significance of reduction of mucosal 5-HT concentrations relative to vehicle)” value is on record?
**A.** *** (*** refers to P<0.005)

**Q.** With CCOC(=O)[C@@H]1CC2(CCN(c3cc(O[C@H](c4ccc(-c5cccc(OC)c5)cc4)C(F)(F)F)nc(N)n3)CC2)CN1 [Example 63ba, (S)-ethyl 8-(2-amino-6-((R)-2,2,2-trifluoro-1-(3′-methoxy-[1,1′-biphenyl]-4-yl)ethoxy)pyrimidin-4-yl)-2,8-diazaspiro[4.5]decane-3-carboxylate] as the compound, how does the “Efficacy (statistical significance of reduction of mucosal 5-HT concentrations relative to vehicle)” value read?
**A.** *** (*** refers to P<0.005)

**Q.** With CCOC(=O)[C@@H]1CC2(CCN(c3cc(O[C@H](c4ccc(CC)cc4-n4ccc(C)n4)C(F)(F)F)nc(N)n3)CC2)CN1 [Example 63be, (S)-ethyl 8-(2-amino-6-((R)-1-(4-ethyl-2-(3-methyl-1H-pyrazol-1-yl)phenyl)-2,2,2-trifluoroethoxy)pyrimidin-4-yl)-2,8-diazaspiro[4.5]decane-3-carboxylate] as the compound, how does the “Efficacy (statistical significance of reduction of mucosal 5-HT concentrations relative to vehicle)” value read?
**A.** *** (*** refers to P<0.005)

**Q.** How did the “Efficacy (statistical significance of reduction of mucosal 5-HT concentrations relative to vehicle)” value turn out when CCOC(=O)c1ccc(-n2ccc(C)n2)c([C@@H](Oc2cc(N3CCC4(CC3)CN[C@H](C(=O)OCC)C4)nc(N)n2)C(F)(F)F)c1 [Example 63bh, (S)-ethyl 8-(2-amino-6-((R)-1-(5-(ethoxycarbonyl)-2-(3-methyl-1H-pyrazol-1-yl)phenyl)-2,2,2-trifluoroethoxy)pyrimidin-4-yl)-2,8-diazaspiro[4.5]decane-3-carboxylate] was run?
**A.** ** (** refers to P<0.01)

**Q.** For CCOC(=O)c1ccc([C@@H](Oc2cc(N3CCC4(CC3)CN[C@H](C(=O)OCC)C4)nc(N)n2)C(F)(F)F)c(-n2ccc(C)n2)c1 [Example 63bi, (S)-ethyl 8-(2-amino-6-((R)-1-(4-(ethoxycarbonyl)-2-(3-methyl-1H-pyrazol-1-yl)phenyl)-2,2,2-trifluoroethoxy)pyrimidin-4-yl)-2,8-diazaspiro[4.5]decane-3-carboxylate], which “Efficacy (statistical significance of reduction of mucosal 5-HT concentrations relative to vehicle)” value is on record?
**A.** ** (** refers to P<0.01)
